Key:
Type in all cases: cell-based
[1] = tested on: Staphylococcus aureus; experiment: MIC micro broth dilution assay; design: key to stacked score activity, 100/MIC, S: stacked score = 100/MIC; conditions: S. aureus
Protocol: (§1) For this study we used a representative panel of multi-drug resistant clinical ESKAPE pathogen isolates (Supplemental Table S6).^42 43 3a, 44 45 Gram-positive organisms were grown in tryptic soy broth media (TSB), whilst Gram-negative organisms were grown in lysogeny Broth (LB), as described by us previously. ^43 MIC and MBC determination assays.
(§2) Broth cultures of ESKAPE strains were grown overnight before being diluted 1 in 1,000 in fresh media. Sterile 96-well plates were loaded with culture and compounds (in DMF) were added at decreasing concentrations to equal a total volume of 200 μl per well. Care was taken to not add more than 2.0% DMF to any well. Plates were then incubated at 37° C., and MICs determined after 24 hours by visual inspection for a lack of turbidity in wells. All assays were performed in triplicate with identical results obtained. For both the scaffold ranking and positional scanning samples, relative broad-spectrum activity was determined via stacked scores: […]

[2] = tested on: Klebsiella pneumoniae; experiment: MIC micro broth dilution assay; design: key to stacked score activity, 100/MIC, K: stacked score = 100/MIC; conditions: K. pneumoniae
Protocol: as §1, §2

[3] = tested on: Acinetobacter baumannii; experiment: MIC micro broth dilution assay; design: key to stacked score activity, 100/MIC, A: stacked score = 100/MIC; conditions: A. baumannii
Protocol: as §1, §2

[4] = tested on: Enterobacter cloacae; experiment: MIC micro broth dilution assay; design: key to stacked score activity, 100/MIC, E: stacked score = 100/MIC; conditions: E. cloacae
Protocol: as §1, §2

[5] = tested on: Enterococcus faecium; experiment: MIC micro broth dilution assay; design: key to stacked score activity, 100/MIC, E: stacked score = 100/MIC; conditions: E. faecium
Protocol: as §1, §2

[6] = tested on: ESKAPE pathogens; experiment: MIC micro broth dilution assay, statements and stacked scores over all ESKAPE pathogens; conditions: for pathogens against which the compound showed activity at 4 ug/ml / pathogens against which the compound showed activity at 5 ug/ml / pathogens against which the compound showed activity at 10 ug/ml / pathogens against which the compound showed activity at 25 ug/ml: letters E,S,K,A,P,E = ESKAPE pathogens, — = none; for stacked score Total: stacked score over all ESKAPE pathogens (details in Table S4b); for Total stacked score: sum over all six ESKAPE pathogens
Protocol: as §1
as §2, with “The minimum inhibitory concentration (MIC) for the combinatorial libraries, deconvolved 2157 library, and individual compounds were determined as follows. Broth” for “Broth”

Row | SMILES | stacked score activity, 100/MIC, S [1] | stacked score activity, 100/MIC, K [2] | stacked score activity, 100/MIC, A [3] | stacked score activity, 100/MIC, E [4] | stacked score activity, 100/MIC, E [5] | pathogens against which the compound showed activity at 4 ug/ml [6] | pathogens against which the compound showed activity at 5 ug/ml [6] | pathogens against which the compound showed activity at 10 ug/ml [6] | pathogens against which the compound showed activity at 25 ug/ml [6] | stacked score Total [6] | Total stacked score [6]
1 | CCCC[C@H]1CN(CCCC[C@H]2CNC(=N)N2CCCCC2CCCCC2)C(=N)N1CCc1ccc(-c2ccccc2)cc1 [Compound 12] | 20 | 20 | 25 | 20 | 20 |  | ESKAE | ESKAPE | ESKAPE |  | 
2 | CCCCCCCN1C(=N)N(CCCC[C@H]2CNC(=N)N2CCc2cccc(C(F)(F)F)c2)C[C@H]1Cc1cccc2ccccc12 [Compound 4] | 25 | 20 | 25 | 20 | 33 | ESA | ESKAE | ESKAE | ESKAPE |  | 
3 | N=C1NC[C@H](CCCCN2C[C@H](CC3CCCCC3)N(CCc3ccc(-c4ccccc4)cc3)C2=N)N1CCCCC1CCCCC1 [Compound 18] | 20 | 20 | 20 | 20 | 20 |  | ESKAPE | ESKAPE | ESKAPE |  | 
4 | N=C1NC[C@H](CCCCN2C[C@H](CC3CCCCC3)N(CCCCC3CCCCC3)C2=N)N1CCCCC1CCCCC1 [Compound 17] | 20 | 20 | 20 | 20 | 20 |  | ESKAPE | ESKAPE | ESKAPE |  | 
5 | N=C1NC[C@H](CCCCN2C[C@H](CC3CCCCC3)N(CCc3ccc(-c4ccccc4)cc3)C2=N)N1CCc1cccc(C(F)(F)F)c1 [Compound 9] | 20 | 20 | 20 | 20 | 25 |  | ESKAPE | ESKAPE | ESKAPE |  | 
6 | CCC(C)[C@H]1CN(CCCC[C@H]2CNC(=N)N2CC2CCC(C)CC2)C(=N)N1CCc1cccc(C)c1 (stereo partly drawn) [Compound 50] | 10 | 0 | 4 | 0 | 10 |  |  |  | ESA |  | 
7 | CCCCCCCN1C(=N)NC[C@@H]1CCCCN1C[C@@H](CCC)N(CCc2cccc(C)c2)C1=N [Compound 35] | 10 | 0 | 4 | 0 | 4 |  |  |  | ESAP |  | 
8 | N=C1NC[C@H](CCCCN2C[C@@H](Cc3cccc4ccccc34)N(CCc3ccc(-c4ccccc4)cc3)C2=N)N1CCCCC1CCCCC1 [Compound 15] | 20 | 10 | 4 | 20 | 10 |  |  | ESKE | ESKAPE |  | 
9 | N=C1NC[C@H](CCCCN2C[C@@H](Cc3cccc4ccccc34)N(CCc3ccc(-c4ccccc4)cc3)C2=N)N1CCc1cccc(C(F)(F)F)c1 [Compound 6] | 20 | 20 | 20 | 20 | 10 |  | SKAE | ESKAE | ESKAPE |  | 

More lines, main results first:

Row | stacked score activity, 100/MIC, S [1] | stacked score activity, 100/MIC, K [2] | stacked score activity, 100/MIC, A [3] | stacked score activity, 100/MIC, E [4] | stacked score activity, 100/MIC, E [5] | SMILES | pathogens against which the compound showed activity at 4 ug/ml [6] | pathogens against which the compound showed activity at 5 ug/ml [6] | pathogens against which the compound showed activity at 10 ug/ml [6] | pathogens against which the compound showed activity at 25 ug/ml [6] | stacked score Total [6] | Total stacked score [6]
10 | 20 | 20 | 25 | 20 | 50 | CCCCC1CN(CCCCC2CNC(=N)N2CCC23CC4CC(CC(C4)C2)C3)C(=N)N1CCCCC1CCCCC1 (stereo not drawn) [Compound 20] | EAP | ESKAPE | ESKAPE | ESKAPE | 160 | 160
11 | 25 | 0 | 0 | 0 | 4 | N=C1NC[C@H](CCCCN2C[C@@H](Cc3cccc4ccccc34)N(CCCCC3CCCCC3)C2=N)N1CCC12CC3CC(CC(C3)C1)C2 [Compound 23] |  |  |  | ESE |  | 
12 | 20 | 20 | 25 | 20 | 50 | CCCCCCCN1C(=N)N(CCCC[C@H]2CNC(=N)N2CCC23CC4CC(CC(C4)C2)C3)C[C@@H]1CC1CCCCC1 [Compound 25] | EAP | ESKAPE | ESKAPE | ESKAPE |  | 
13 | 20 | 20 | 20 | 20 | 20 | N=C1NC[C@H](CCCCN2C[C@H](CC3CCCCC3)N(CCCCC3CCCCC3)C2=N)N1CCC12CC3CC(CC(C3)C1)C2 [Compound 26] |  | ESKAPE | ESKAPE | ESKAPE |  | 
14 | 20 | 20 | 4 | 10 | 10 | N=C1NC[C@H](CCCCN2C[C@H](CC3CCCCC3)N(CCc3ccc(-c4ccccc4)cc3)C2=N)N1CCC12CC3CC(CC(C3)C1)C2 [Compound 27] |  | SKP | ESKPE | ESKAPE |  | 
15 | 20 | 20 | 25 | 20 | 33 | CCCCC1CN(CCCCC2CNC(=N)N2CCC23CC4CC(CC(C4)C2)C3)C(=N)N1CCc1ccc(-c2ccccc2)cc1 (stereo not drawn) [Compound 21] |  | ESKAPE | ESKAPE | ESKAPE | 123 | 123
